Measurements from US11517568B2, “Compounds and methods for treating nematode infections” (The Governing Council of The University of Toronto, priority 2018, dated 2022).
Read-outs that look alike come from different tables or passages of the source.

Assays:
[1] = test system: wild type fourth-stage C. elegans larvae (L4s); test: Locomotory defects (coiled and/or paralysis) in wild type fourth-stage C. elegans larvae on solid substrate; assay type: in vivo, Caenorhabditis elegans; settings: for Activity (%): percent of animals that show coiled and/or paralysis: 60 μM, after 60 min on solid substrate, L4 C. elegans
Procedure: A preliminary first round of SAR analyses using analogs of exemplary compound Ia was performed and the analogs' ability to induce locomotory defects in wild type fourth-stage C. elegans larvae (L4s) was tested.
If phenotype is observed, a dose-response analysis is performed.

L3 animals = test: Abnormal locomotory behaviour of L3 animals on solid agar (extended SAR); assay type: in vivo, Caenorhabditis elegans; settings: for pest or weed control at 3.75 µM / pest or weed control at 15 µM / pest or weed control at 60 µM: Caenorhabditis elegans
Procedure: 20 animals were scored after either 1, 6 or 24 hours of exposure to drug (as indicated) per replicate. […] Data are reported as the mean % of animals with abnormal phenotype over 4 independent replicates.

wild type C. elegans = test: Manual monitoring of locomotion phenotype of wild type C. elegans on solid agar containing the small molecule; assay type: in vivo, Caenorhabditis elegans; settings: for locomotory phenotype induced: solid agar substrate
From the text: The ability of the 64 Egl hits to modulate the normal sinusoidal locomotion of wild type C. elegans was then examined. The animal's behaviour over the course of several hours was manually monitored while the animal moved atop a solid agar substrate containing the small molecule. Many different genes govern the sinusoidal locomotion of wild type C. elegans, but their mutation can lead to qualitatively distinct locomotory phenotypes.

C. elegans [2] = test: Forward genetic screens for mutants resisting early larval lethal effects; assay type: in vivo, Caenorhabditis elegans; settings: over 200,000 F1 and over 100,000 F2 animals screened
Procedure: Forward genetic screens were performed for mutants that can resist the early larval lethal effects of compound Ic and compound Id. Over 200,000 F1 animals and over 100,000 F2 animals from randomly mutagenized parents/grandparents were screened.

HEK293 cells = test: HEK293 cell proliferation, Celltiter Blue Cell Viability Assay; assay type: cell-based; settings: dose-response, 48 hours, triplicates
Procedure: A cytotoxic formulation was used as positive control. Experiments were performed in triplicates on different days. […] Error bars indicate standard deviation.

C. elegans [3] = test: Suppression of aldicarb-induced paralysis in C. elegans; assay type: in vivo; settings: Caenorhabditis elegans
Procedure: Whether exemplary compound Ia can suppress the paralysis that is induced by aldicarb was tested. Aldicarb inhibits acetylcholinesterase, which normally catabolizes ACh at the synaptic cleft. […] Aldicarb treatment therefore results in excess ACh and paralyzes the animal due to excess muscle contraction. If exemplary compound Ia inhibits UNC-17 and results in lower levels of ACh at the synaptic cleft, then exemplary compound Ia should reduce aldicarb-induced paralysis.

fish = test: Dose-response analysis in fish, cardiac defects; assay type: in vivo
[4] = test system: UNC-17 (VAChT), unc-17 mutant strains; assay type: in vivo, Caenorhabditis elegans; settings: p=0.001
[5] = 3.75 uM, 1 h exposure, L3, mean of 4 replicates
[6] = 3.75 uM, 6 h exposure, L3, mean of 4 replicates
[7] = 3.75 uM, 24 h exposure, L3, mean of 4 replicates
[8] = 15 uM, 1 h exposure, L3, mean of 4 replicates
[9] = 15 uM, 6 h exposure, L3, mean of 4 replicates
[10] = 15 uM, 24 h exposure, L3, mean of 4 replicates
[11] = 60 uM, 1 h exposure, L3, mean of 4 replicates
[12] = 60 uM, 6 h exposure, L3, mean of 4 replicates
[13] = 60 uM, 24 h exposure, L3, mean of 4 replicates
[14] = 1 h, read-out: % any phene 1 h (conc.) 3.75
[15] = 1 h, read-out: % any phene 1 h (conc.) 15
[16] = 1 h, read-out: % any phene 1 h (conc.) 60
[17] = 6 h, read-out: % any phene 6 h (conc.) 3.75
[18] = 6 h, read-out: % any phene 6 h (conc.) 15
[19] = 6 h, read-out: % any phene 6 h (conc.) 60
[20] = 24 h, read-out: % any phene 24 h (conc.) 3.75
[21] = 24 h, read-out: % any phene 24 h (conc.) 15
[22] = 24 h, read-out: % any phene 24 h (conc.) 60
[23] = 3.75 uM, 1 h exposure, L3, mean of 4 replicates, read-out: % any phene 1 h (conc.) 3.75
[24] = 3.75 uM, 6 h exposure, L3, mean of 4 replicates, read-out: % any phene 6 h (conc.) 3.75
[25] = 3.75 uM, 24 h exposure, L3, mean of 4 replicates, read-out: % any phene 24 h (conc.) 3.75
[26] = 15 uM, 1 h exposure, L3, mean of 4 replicates, read-out: % any phene 1 h (conc.) 15
[27] = 15 uM, 6 h exposure, L3, mean of 4 replicates, read-out: % any phene 6 h (conc.) 15
[28] = 15 uM, 24 h exposure, L3, mean of 4 replicates, read-out: % any phene 24 h (conc.) 15
[29] = 60 uM, 1 h exposure, L3, mean of 4 replicates, read-out: % any phene 1 h (conc.) 60
[30] = 60 uM, 6 h exposure, L3, mean of 4 replicates, read-out: % any phene 6 h (conc.) 60
[31] = 60 uM, 24 h exposure, L3, mean of 4 replicates, read-out: % any phene 24 h (conc.) 60

Row | SMILES | Activity (%): percent of animals that show coiled and/or paralysis [1] | % any phene 1 h (conc.) 3.75 (L3 animals; [5]) | % any phene 6 h (conc.) 3.75 (L3 animals; [6]) | % any phene 24 h (conc.) 3.75 (L3 animals; [7]) | % any phene 1 h (conc.) 15 (L3 animals; [8]) | % any phene 6 h (conc.) 15 (L3 animals; [9]) | % any phene 24 h (conc.) 15 (L3 animals; [10]) | % any phene 1 h (conc.) 60 (L3 animals; [11]) | % any phene 6 h (conc.) 60 (L3 animals; [12]) | % any phene 24 h (conc.) 60 (L3 animals; [13]) | other results
1 | O=[N+]([O-])c1ccc(N2CCN(CC3CC4C=CC3C4)CC2)cc1 (stereo not shown) [Compound Id] | 0.00% | 19.2% | 5.8% | 0.0% | 65.5% | 36.7% | 45.0% | 95.8% | 100.0% | 95.8% | locomotory phenotype induced (wild type C. elegans): ‘jerky-unc’ phenotype; mutants resisting early larval lethal effects (C. elegans [2]): No mutants that could resist the lethal effects
2 | CC1CCC(N2CCN(c3ccc([N+](=O)[O-])cc3)CC2)CC1 (stereo not shown) [Ib] | 87% +/− 3.7 |  |  |  |  |  |  |  |  |  | pest or weed control at 3.75 µM (L3 animals; [14]): 3.3%; pest or weed control at 15 µM (L3 animals; [15]): 97.5%; pest or weed control at 60 µM (L3 animals; [16]): 100%; pest or weed control at 3.75 µM (L3 animals; [17]): 0%; pest or weed control at 15 µM (L3 animals; [18]): 93.3%; pest or weed control at 60 µM (L3 animals; [19]): 100%; pest or weed control at 3.75 µM (L3 animals; [20]): 0%; pest or weed control at 15 µM (L3 animals; [21]): 73.3%; pest or weed control at 60 µM (L3 animals; [22]): 100%
3 | O=[N+]([O-])c1ccc(N2CCN(CC3CCCC3)CC2)cc1 [If] | 98% +/− 1.9 |  |  |  |  |  |  |  |  |  | rank among analogs for inducing locomotory defects ([1]; SAR comparison with compound Ia analogs): most potent analog to date
4 | CCC1CCC(N2CCN(c3ccc([N+](=O)[O-])cc3)CC2)CC1 (stereo not shown) [Ic] | 71% +/− 2.1 |  |  |  |  |  |  |  |  |  | pest or weed control at 3.75 µM (L3 animals; [23]): 29.2%; pest or weed control at 3.75 µM (L3 animals; [24]): 8.3%; pest or weed control at 3.75 µM (L3 animals; [25]): 0%; pest or weed control at 15 µM (L3 animals; [26]): 95.9%; pest or weed control at 15 µM (L3 animals; [27]): 80.8%; pest or weed control at 15 µM (L3 animals; [28]): 89.2%; pest or weed control at 60 µM (L3 animals; [29]): 100%; pest or weed control at 60 µM (L3 animals; [30]): 100%; pest or weed control at 60 µM (L3 animals; [31]): 100%
5 | C1CNCCN1 [Piperazine, reference compound] | 0.00% |  |  |  |  |  |  |  |  |  | 
6 | O=[N+]([O-])c1ccc(N2CCN(Cc3ccccc3)CC2)cc1 [Im] | 0.00% | 0.0% | 0.0% | 0.0% | 7.5% | 3.3% | 0.0% | 44.2% | 30.8% | 0.0% | 
7 | O=[N+]([O-])c1ccc(N2CCN(CC3CCCCC3)CC2)cc1 [Compound Ia] | 90% +/− 5.4 |  |  |  |  |  |  |  |  |  | EC50 ([1]; Caenorhabditis elegans, read-out: EC50 (coiled and/or paralysis, dose-response)): 12.8 µM; pest or weed control at 3.75 µM (L3 animals; [14]): 42.5%; pest or weed control at 15 µM (L3 animals; [15]): 91%; pest or weed control at 60 µM (L3 animals; [16]): 100%; pest or weed control at 3.75 µM (L3 animals; [17]): 22.5%; pest or weed control at 15 µM (L3 animals; [18]): 64.2%; pest or weed control at 60 µM (L3 animals; [19]): 100%; pest or weed control at 3.75 µM (L3 animals; [20]): 0%; pest or weed control at 15 µM (L3 animals; [21]): 34.2%; pest or weed control at 60 µM (L3 animals; [22]): 80%; effect on HEK293 cell proliferation (HEK293 cells): no effect; EC50 (C. elegans [3]): 4.81 µM; potency for inducing locomotory defects in worms relative to vesamicol (wild type C. elegans; compared with vesamicol): more than 30 times; cardiac defects in fish (fish): weakest cardiac defects
8 | N#Cc1ccc(N2CCN(CC3CCCCC3)CC2)cc1 [Ik] | 61% +/− 5.0 | 8.3% | 15.0% | 0.0% | 45.8% | 37.5% | 23.3% | 91.7% | 98.3% | 100.0% | 
9 | Fc1ccc(N2CCN(CC3CC=CCC3)CC2)cc1 (stereo not shown) [Iy] |  |  |  |  |  |  |  |  |  |  | pest or weed control at 3.75 µM (L3 animals; [23]): 22.5%; pest or weed control at 3.75 µM (L3 animals; [24]): 0%; pest or weed control at 3.75 µM (L3 animals; [25]): 0%; pest or weed control at 15 µM (L3 animals; [26]): 77.5%; pest or weed control at 15 µM (L3 animals; [27]): 35%; pest or weed control at 15 µM (L3 animals; [28]): 0%; pest or weed control at 60 µM (L3 animals; [29]): 100%; pest or weed control at 60 µM (L3 animals; [30]): 99.2%; pest or weed control at 60 µM (L3 animals; [31]): 58.3%
10 | N#Cc1ccc(N2CCN(CC3CCCC3)CC2)cc1 [Ip] | 41% +/− 7.4 | 0.8% | 0.0% | 0.0% | 29.2% | 10.0% | 0.0% | 91.3% | 42.5% | 62.5% | 
11 | c1ccc(N2CCN(CC3CCCCC3)CC2)cc1 [Ii] | 19% +/− 8.1 | 16.2% | 0.0% | 0.0% | 39.2% | 0.8% | 0.0% | 84.2% | 44.2% | 20.5% | 
12 | O=[N+]([O-])c1ccc(N2CCN(CC3CC=CCC3)CC2)cc1 (stereo not shown) [Ie] | 19% +/− 8.0 | 15.0% | 0.0% | 0.0% | 45.0% | 56.7% | 0.0% | 94.2% | 80.8% | 57.5% | locomotory phenotype induced (wild type C. elegans): ‘severe’ snake-like coiler phenotype and paralysis; cardiac defects in fish (fish): strongest cardiac defects
13 | O[C@@H]1CCCC[C@H]1N1CCC(c2ccccc2)CC1 (racemic) [Vesamicol, reference compound] | 6% +/− 0.1 |  |  |  |  |  |  |  |  |  | pest or weed control at 3.75 µM (L3 animals; [14]): 0%; pest or weed control at 15 µM (L3 animals; [15]): 0%; pest or weed control at 60 µM (L3 animals; [16]): 11.7%; pest or weed control at 3.75 µM (L3 animals; [17]): 0%; pest or weed control at 15 µM (L3 animals; [18]): 0.8%; pest or weed control at 60 µM (L3 animals; [19]): 1.7%; pest or weed control at 3.75 µM (L3 animals; [20]): 0%; pest or weed control at 15 µM (L3 animals; [21]): 0%; pest or weed control at 60 µM (L3 animals; [22]): 0%; locomotory phenotype induced (wild type C. elegans): jerky-unc and coiling, but only at concentrations close to its limit of solubility; sensitivity of unc-17(md414) (C370Y) mutant [4]: partially resistant
14 | O=[N+]([O-])c1ccc(N2CCN(CC3CC3)CC2)cc1 [Iq] | 6% +/− 3.2 | 0.0% | 5.0% | 0.0% | 4.2% | 29.2% | 0.0% | 32.5% | 36.7% | 4.2% | 
15 | c1ccc(N2CCN(C3CCCCCCC3)CC2)cc1 [Icc] |  |  |  |  |  |  |  |  |  |  | pest or weed control at 3.75 µM (L3 animals; [23]): 46.7%; pest or weed control at 3.75 µM (L3 animals; [24]): 0%; pest or weed control at 3.75 µM (L3 animals; [25]): 0%; pest or weed control at 15 µM (L3 animals; [26]): 93.3%; pest or weed control at 15 µM (L3 animals; [27]): 0.8%; pest or weed control at 15 µM (L3 animals; [28]): 0%; pest or weed control at 60 µM (L3 animals; [29]): 100%; pest or weed control at 60 µM (L3 animals; [30]): 33.3%; pest or weed control at 60 µM (L3 animals; [31]): 0%
